In US10266544B2, “Aryl substituted aminomethyl spectinomycin analogs as antibacterial agents” (ST. JUDE CHILDREN'S RESEARCH HOSPITAL, INC., priority 2013, dated 2019):
Converted amounts (≈) assume the structure as drawn. Counter-ions that a name gives are not always drawn. Like-named read-outs stand apart in the source and are kept apart here.

Assays:
Type in all cases: cell-based
[1] = tested on: Bacillus anthracis, Sterne 34F2; test: microbe, parasite or virus in culture; conditions: STERNE34F2, read-out: MIC B.a.
[2] = tested on: Bacillus subtilis (ATCC 23857); test: MIC determination, microbroth dilution; conditions: ATCC23857; Bacillus subtilis (ATCC 23857); read-out: MIC B.s.
[3] = tested on: Enterococcus faecalis (ATCC 33186); test: MIC determination, microbroth dilution; conditions: ATCC33186; Enterococcus faecalis (ATCC 33186); read-out: MIC E.f.
[4] = tested on: Staphylococcus aureus (ATCC 29213); test: MIC determination, microbroth dilution; conditions: ATCC29213; Staphylococcus aureus (ATCC 29213); read-out: MIC S.a.
[5] = tested on: MRSA, Staphylococcus aureus (NRS70); test: MIC determination, microbroth dilution; conditions: Staphylococcus aureus (NRS70); read-out: MIC MRSA
[6] = tested on: Streptococcus pneumoniae (R6); test: MIC determination, microbroth dilution
[7] = tested on: Streptococcus pyogenes (ATCC 700294); test: MIC determination, microbroth dilution; conditions: ATCC700294; Streptococcus pyogenes (ATCC 700294); read-out: MIC S. py.
[8] = tested on: M. tuberculosis clinical isolates; test: microbe, parasite or virus in culture; conditions: Mycobacterium tuberculosis, H37RV, read-out: MIC H37Rv
[9] = tested on: acinetobacter baumannii (ATCC 19606); test: MIC determination, microbroth dilution; conditions: ATCC19606
[10] = tested on: Burkholderia cepacia (ATCC 25416); test: MIC determination, microbroth dilution; conditions: Burkholderia cepacia, ATCC25416, read-out: MIC B.c., Burkholderia cepacia (ATCC 25416)
[11] = tested on: Escherichia coli (ATCC 700926); test: MIC determination, microbroth dilution
Procedure: MICs were determined using the microbroth dilution method according to Clinical Laboratory Standards Institute (CLSI; National, C. F. C. L. S., Methods for Dilution Antimicrobial Susceptibility Tests for Bacteria Grow aerobically-Seventh Edition: Approved Standard M7-A7, CLSI, Wayne, Pa., USA, 2008) and were read by visual inspection. Two fold serial dilutions of antibiotic in 100 μL of the appropriate broth media were first prepared in 96-well round bottom microtiter plates (Nalge Nunc International, Rochester, N.Y., USA). An equivalent volume (100 μL) of bacterial broth inocula containing approximately 10^5 bacterial cfu/mL was added to each well to give final concentrations of drug starting at 200 μg/mL and the plates were incubated aerobically at 37° C. M. tuberculosis microtiter plates were incubated for 7 days and all other strains were incubated overnight. After incubations, in all cases the MIC was recorded as the lowest concentration of drug that prevented bacterial growth.

E. coli K12 ΔtolC = test: microbe, parasite or virus in culture; conditions: Escherichia coli, read-out: MIC E.c. Δtolc
[12] = tested on: Klebsiella pneumoniae (ATCC 33495); test: MIC determination, microbroth dilution; conditions: ATCC33495
[13] = tested on: Pseudomonas aeruginosa (PA01); test: MIC determination, microbroth dilution
[14] = tested on: Proteus mirabilis (ATCC 25933); test: MIC determination, microbroth dilution; conditions: ATCC25933
[15] = tested on: Proteus vulgaris (ATCC 33420); test: MIC determination, microbroth dilution; conditions: ATCC33420
[16] = tested on: Stenotrophomonas maltophilia (ATCC 13637); test: MIC determination, microbroth dilution; conditions: ATCC13637; Stenotrophomonas maltophilia (ATCC 13637); read-out: MIC S.m.
[17] = tested on: Streptococcus pneumoniae clinical isolates representing several serotypes; test: MIC determination, Streptococcus pneumoniae panel of clinical isolates (Table 7); conditions: Streptococcus pneumoniae
[18] = Streptococcus pneumoniae (R6), read-out: MIC S. pn.
[19] = ATCC700926, Escherichia coli (ATCC 700926), read-out: MIC E.c.

Structure (SMILES) | MIC [1] [mg/L] | MIC [2] [mg/L] | MIC [4] [mg/L] | MIC [5] [mg/L] | MIC [6, 18] [mg/L] | MIC [7] [mg/L] | MIC [9] [mg/L] | MIC [10] [mg/L] | MIC (E. coli K12 ΔtolC) [mg/L] | MIC [12] [mg/L] | MIC [13] [mg/L] | MIC [14] [mg/L] | MIC [15] [mg/L] | MIC [16] [mg/L] | MIC [11, 19] [mg/L] | further results
CN[C@@H]1[C@H](O)[C@H](NC)C2O[C@]3(O)C(OC2[C@H]1O)O[C@H](C)C[C@@]3(O)CNCc1ccc2c(c1)OCO2 (stereo partly drawn) [compound 36] | > 200 | 12.5 (≈ 25.1 µM) | 100 (≈ 201 µM) | > 200 | 25 (≈ 50.2 µM) | 25 (≈ 50.2 µM) |  |  |  |  |  |  |  |  |  | MIC [3]: 100 mg/L (≈ 201 µM); MIC [8]: 50 mg/L (≈ 100 µM)
CN[C@@H]1[C@H](O)[C@H](NC)C2O[C@]3(O)C(OC2[C@H]1O)O[C@H](C)C[C@@]3(O)CNCc1cccc(C(F)(F)F)c1 (stereo partly drawn) [compound 50] | > 200 | 12.5 (≈ 24 µM) | 50 (≈ 95.9 µM) | 50 (≈ 95.9 µM) | 3.13 (≈ 6 µM) | 1.56 (≈ 2.99 µM) |  |  |  |  |  |  |  |  |  | MIC [3]: 25 mg/L (≈ 47.9 µM)
CN[C@@H]1[C@H](O)[C@H](NC)[C@H]2O[C@]3(O)[C@H](O[C@@H]2[C@H]1O)O[C@H](C)C[C@@]3(O)CNCc1cncnc1 [compound 66, 3′-(R)-3′-[(pyrimidin-5-ylmethyl)aminomethyl]dihydrospectinomycin tetrahydrobromide] | 100 | 200 | > 200 | > 200 | 0.8 | 100 | > 200 | > 200 | 25 to 50 | 100 to 200 | > 200 | > 200 | > 200 | 100 |  | MIC ([11]; Escherichia coli, ATCC700926, read-out: MIC E.c.): 50 mg/L
CN[C@@H]1[C@H](O)[C@H](NC)[C@H]2O[C@]3(O)[C@H](O[C@@H]2[C@H]1O)O[C@H](C)C[C@@]3(O)CNCc1cnccn1 [compound 67, 3′-(R)-3′-[(pyrazin-2-ylmethyl)aminomethyl]dihydrospectinomycin tetrahydrobromide] | 200 | 100 | > 200 | > 200 | 6.3 | 100 | > 200 | > 200 | 25 to 50 | 100 | > 200 | > 200 | > 200 | 100 | 50 to 100 | 
CN[C@@H]1[C@H](O)[C@H](NC)[C@H]2O[C@]3(O)[C@H](O[C@@H]2[C@H]1O)O[C@H](C)C[C@@]3(O)CNCc1ccc(SC)cc1 [compound 68, 3′-(R)-3′-[(4-(methylthio)benzylaminomethyl)]dihydrospectinomycin trihydrobromide] | 25 | 25 | 25 | 50 | 1.6 | 3.1 | > 200 | > 200 | 12.5 | 100 to 200 | 200 | > 200 | > 200 | 25 | 50 | 
CN[C@@H]1[C@H](O)[C@H](NC)[C@H]2O[C@]3(O)[C@H](O[C@@H]2[C@H]1O)O[C@H](C)C[C@@]3(O)CNCc1ccc(S(C)(=O)=O)cc1 [compound 69, 3′-(R)-3′-[(4-(methylsulfonyl)benzylaminomethyl)]dihydrospectino-mycin trihydrobromide] | > 200 | > 200 | > 200 | > 200 | 100 | 100 | > 200 | > 200 | 12.5 to 25 | > 200 | > 200 | > 200 | > 200 | > 200 | 50 to 100 | 
CN[C@@H]1[C@H](O)[C@H](NC)[C@H]2O[C@]3(O)[C@H](O[C@@H]2[C@H]1O)O[C@H](C)CC3(O)CN (stereo partly drawn) [mSPC, 3′-aminomethyl-3′-hydroxy spectinomycin, reference compound] |  |  |  |  |  |  |  |  |  |  |  |  |  |  |  | MIC ([6]; Streptococcus pneumoniae, S. pneumoniae R6, Drug Susceptible, read-out: MIC R6): 50 mg/L (≈ 138 µM); MIC ([17]; BAA1407, S. pneumoniae BAA-1407, Macrolide Resistant, read-out: MIC BAA-1407): 200 mg/L (≈ 550 µM); MIC ([17]; S. pneumoniae A66.1x, Drug Susceptible, read-out: MIC A66.1x): 50 mg/L (≈ 138 µM); MIC ([17]; S. pneumoniae BHN97x, Drug Susceptible, read-out: MIC BHN97x): 50 mg/L (≈ 138 µM); MIC ([17]; S. pneumoniae D39X, Drug Susceptible, read-out: MIC D39X): 100 mg/L (≈ 275 µM); MIC ([17]; S. pneumoniae Daw7, PenG Resistant, read-out: MIC Daw7): 100 mg/L (≈ 275 µM); MIC ([17]; S. pneumoniae Daw8, PenG Resistant, read-out: MIC Daw8): 100 mg/L (≈ 275 µM); MIC ([17]; S. pneumoniae Daw9, PenG Resistant, read-out: MIC Daw9): 50 mg/L (≈ 138 µM); MIC ([17]; S. pneumoniae Daw62, PenG Resistant, read-out: MIC Daw62): 100 mg/L (≈ 275 µM); MIC ([17]; S. pneumoniae Daw64, PenG Resistant, read-out: MIC Daw64): 100 mg/L (≈ 275 µM); MIC ([17]; S. pneumoniae OVA6, Macrolide Resistant, read-out: MIC OVA6): 50 mg/L (≈ 138 µM); MIC ([17]; S. pneumoniae T4X, Drug Susceptible, read-out: MIC T4X): 50 mg/L (≈ 138 µM)
